Data set [1] concerns Hepatitis B Virus. The data set can be described thus: IC-90 of N-nonyl-DNJ (T. Block and G. Jacob, unpublished observation). The class given is cell-based. As to the method: The anti-hepatitis B virus effect of (−)-2′-deoxy-3′-thiocytidine-5′-triphosphate (3TC) alone and in combination with N-nonyl-DNJ was determined according to Korba ((1996) Antiviral Research 29(1):49-51), using the “combostat” strategy (Comstat Program, Combostat Corp., Duluth, Minn.). The combostat method involves serially diluting the IC-90 of each compound. The IC-90 of N-nonyl-DNJ has been determined to be between 4 and 10 μg/ml (T. Block and G. Jacob, unpublished observation). The accepted IC-90 for 3TC in HepG 2.2.15 (2.2.15) cells is 300 nM to 500 nM (Doong et al. (1991) Proc. Natl. Acad. Sci. USA 88:8495-8499).

In data set [2] the test system is woodchuck hepatitis virus (WHV). Description: Woodchuck model, N-nonyl-DNJ monotherapy, BID oral dosing for 4 weeks; total HBV DNA and IPDNA by quantitative PCR. The data set is classed as in vivo. From the text:
In order to evaluate the efficacy of N-nonyl-DNJ in combination with 3TC (or other nucleoside or nucleotide analogs) against Hepatitis B virus in a woodchuck animal model, an monotherapy experiment using N-nonyl-DNJ alone was first conducted. This was necessary to determine if N-nonyl-DNJ has any anti-HBV effect in the woodchuck and, if N-nonyl-DNJ has a beneficial effect, to design a combination study based on the dose-response relationship of this drug alone.
Therefore, five groups of four animals each (all groups had both sexes, all but the control had two of each sex) were assigned to 0, 12.5, 25, 50, and 100 mg/kg/day with BID oral dosing. These were lab-reared wild animals. All animals were infected with woodchuck hepatitis virus (WHV) as neonates, and had been tested positive on serological tests for WHV surface antigen. Blood samples were drawn one week prior to dosing (−1 week), immediately before dosing (0 weeks), weekly during dosing (1, 2, 3, and 4 weeks), and after the end of dosing (5, 6, 8, and 10 weeks).
There are two measures of drug efficacy: reduction in total HBV DNA (measured by quantitative PCR), and reduction in HBV DNA from capsids with intact surface glycoproteins, which is the active form of the virus (measured by an ELISA-like immune precipitation assay followed by quantitative PCR).
Before models are fitted to the data, a log transform was applied because: 1) the variation in IPDNA increases with increasing IPDNA values; the log transformation gives values with a nearly constant variation, and 2) it is expected that drug effects will appear as a constant multiplier of the IPDNA level. Because there are zero values of IPDNA, a small value (about 1/2 of the smallest non-zero value) was added to all values before the log transform.
Two approaches were used to model the changes in slope to week with dose of N-nonyl-DNJ: a linear modeling approach and a nonlinear model. Both approaches assume that the (linear) rate of change of the Log(IPDNA) measure over the dosing period is the “right” measure to reflect the effect of the drug on the virus. Both approaches are fit in stages, and the first stage is common to both approaches. First, a simple straight line regression model is fit using weeks 0-4 to predict log(IPDNA+10) separately for each animal by run combination. In the second stage, the response variable is the slope fitted in the first stage.
For the linear approach, a model is fit with slope to week as the response where run is considered a block, dose has a significant effect (almost all of this effect is due to a slope to dose), and the relevant error for testing the effect of dose is the variation among animals treated alike (after the adjustment for the runs as blocks). This is similar to using the calibration data within each run to first adjust each run's data to a common virus DNA concentration; the difference is that here the data from the woodchucks are used for the run adjustment rather than only the calibration data.
For the nonlinear approach, a four parameter logistic model is fit with the slope to week as the response and the dose as the predictor. Again, run is considered a block, but because no run has all weeks, it is not possible to fully reflect the blocking in the nonlinear approach. […] The average maximum slope observed was 2.71 additional Log(IPDNA μg/mL)/week, or an increase of about 150%/week, the average minimum slope observed with N-nonyl-DNJ is 0.31 fewer Log(IPDNA μg/mL)/week), or about a decrease of about 25%/week. The slopes, the fitted model, the parameter estimates from the model, and the approximate standard errors for these parameters are all shown in FIG. 3. […] Whether in woodchucks or humans, the effective dose of both the N-alkyl-DNJ and nucleoside or nucleotide antiviral agent administered in combination therewith can be administered in two equal daily subdoses (i.e., B.I.D.).

Data set [3] concerns HepG2.2.15 cells. The data set can be described thus: Viability of HepG2.2.15 cells, trypan blue exclusion. The data set is classed as cell-based. Conditions: [200] and [1000]; trypan blue staining not performed. The procedure: (§1) The anti-hepatitis B virus activity and effect on cell viability of a number of different N-substituted-1,5-dideoxy-1,5-imino-D-glucitol compounds were assessed using an in vitro assay employing chronically hepatitis B virus secreting HepG2.2.15 cells. The method employed was essentially that described in Block et al. (1994) Proc. Natl. Acad. Sci. USA 91:2235-2239.

Data set [4] concerns Hepatitis B Virus. The data set can be described thus: Hepatitis B virus secretion from chronically HBV secreting HepG2.2.15 cells (preS1 immunoprecipitation of virions, PCR of viral DNA). Conditions: 3 days incubation. The data set is classed as cell-based. The procedure: as §1
Setting [5] is: concentration [200] (unit not given).
[6] abbreviates: concentration [1000] (unit not given).

As a reminder, the IC90 is the concentration at which the effect reaches the 90% level. As to `CCCCCCCCCN1C[C@H](O)[C@@H](O)[C@H](O)[C@H]1CO` [Compound 1, N-(n-nonyl)-1,5-dideoxy-1,5-imino-D-glucitol], the IC90 in data set [1] lay within 4 to 10 µg/mL. Also, in data set [2] (woodchuck, all dose levels, pre-dose and dosed portions of the study), the “effect on total HBV DNA measurements” value is listed as “no effect”. For the same molecule, in data set [2] (woodchuck, weeks 0-4), the “average minimum slope observed” value is given as 0.31 fewer Log(IPDNA μg/mL)/week, the “decrease of IPDNA corresponding to average minimum slope” value is “about 25 %/week” and the “increase of IPDNA corresponding to average maximum slope” value was “about 150 %/week”. In addition, the “average maximum slope observed” value in data set [2] (woodchuck, weeks 0-4, upper end of dose-response model) is reported as 2.71 additional Log(IPDNA μg/mL)/week. Further, the “approximate effective monotherapy dose” value in data set [2] (woodchucks, oral) is “about 16 mg/kg/day”.
In the case of `CCC(CC)CN1C[C@H](O)[C@@H](O)[C@H](O)[C@H]1CO` [Compound 3, N-(2-ethylbutyl)-1,5-dideoxy-1,5-imino-D-glucitol], the “Appearance of cells by gross microscopic examination” value in data set [3] is “^5Although trypan blue viability staining was not performed, cells appeared unremarkable (healthy) by gross microscopic examination”. The “Relative amount of HBV secreted, as a % of control” value in data set [4] (setting [5]) is 45.0 +/− 30 (n = 3) % of control; in data set [4] (setting [6]) it was 5.0 +/− 20 (n = 3) % of control.
On to `CCCCN1C[C@H](O)[C@@H](O)[C@H](O)[C@H]1CO` [NBDNJ, N-(n-butyl-)-1,5-dideoxy-1,5-imino-D-glucitol, reference compound], for which the “Relative amount of HBV secreted, as a % of control” value is 37.0 +/− 13 (n = 15) % of control in data set [4] (setting [5]) and 3.2 +/− 5 (n = 15) % of control in data set [4] (setting [6]).

The record behind these values is patent US6809083B1, “Use of N-substituted-1, 5-dideoxy-1, 5-imino-D-glucitol compounds for treating hepatitis virus infections” (priority 1998, dated 2004).
